Here are results for 14 compounds from publication PMC10444021, “Design and synthesis of new spirooxindole candidates and their selenium nanoparticles as potential dual Topo I/II inhibitors, DNA intercalators, and apoptotic inducers” (Journal of Enzyme Inhibition and Medicinal Chemistry, 2023).

In brackets after ≈: the same amount, converted by molar mass.

One data set concerns MCF7. Put plainly: MTT cytotoxicity, MCF7. The data set is classed as cell-based. To be noted: Homo sapiens, mean ± SD. The protocol: (§1) The cytotoxic activities of the constructed members were assessed via the reported MTT method[49–52] (Supporting information).
(§2) The cytotoxic screening was performed using the MTT assay. […] Besides, the HCT-116 one was sensitive to only two samples, while the MCF7 was sensitive to one sample only. Two standard cytotoxic drugs: Dox and 5-fluorouracil (5-FU) were also applied on the same used cancer cell lines as references.

Another data set deals with HepG2. Put plainly: MTT cytotoxicity, HepG2. The data set is classed as cell-based. The following applies: Homo sapiens, mean ± SD. The procedure:
as §1, §2

In another data set the test system is A-549. Put plainly: MTT cytotoxicity, A-549. The data set is classed as cell-based. To be noted: Homo sapiens, A549, mean ± SD. The procedure:
as §1, §2

In another data set the target is T1, Topo I (Homo sapiens, UniProt P11387).
T1 sequence (P11387 1-765): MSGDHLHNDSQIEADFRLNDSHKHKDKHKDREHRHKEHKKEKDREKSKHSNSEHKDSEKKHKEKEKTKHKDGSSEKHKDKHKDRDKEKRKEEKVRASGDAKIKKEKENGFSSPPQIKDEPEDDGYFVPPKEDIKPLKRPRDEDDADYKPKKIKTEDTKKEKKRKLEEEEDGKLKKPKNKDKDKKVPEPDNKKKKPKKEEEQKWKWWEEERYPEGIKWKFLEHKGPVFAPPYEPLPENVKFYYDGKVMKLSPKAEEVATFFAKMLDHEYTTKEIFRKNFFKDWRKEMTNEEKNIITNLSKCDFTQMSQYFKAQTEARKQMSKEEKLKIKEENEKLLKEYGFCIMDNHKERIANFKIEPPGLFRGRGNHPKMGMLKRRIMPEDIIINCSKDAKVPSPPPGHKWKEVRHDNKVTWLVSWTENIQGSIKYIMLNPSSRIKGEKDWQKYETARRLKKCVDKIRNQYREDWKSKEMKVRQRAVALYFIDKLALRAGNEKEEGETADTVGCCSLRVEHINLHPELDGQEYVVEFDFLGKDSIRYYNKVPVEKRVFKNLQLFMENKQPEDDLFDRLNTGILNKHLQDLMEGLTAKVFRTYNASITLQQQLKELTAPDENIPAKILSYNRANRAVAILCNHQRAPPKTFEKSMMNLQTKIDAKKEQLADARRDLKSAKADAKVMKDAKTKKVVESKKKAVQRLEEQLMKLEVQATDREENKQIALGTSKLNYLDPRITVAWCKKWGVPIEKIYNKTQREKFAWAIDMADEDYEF
Put plainly: Topo I inhibitory assay. The data set is classed as biochemical. The protocol:
(§3) The tested members were subjected to Topo I inhibitory activity evaluation using the previously reported method. While the Topo II inhibitory assay was done according to the method described by Patra et al.[55] (Supporting information).
(§4) Thus, compounds 5b and 7d in addition to their nano complexes 5b NPs and 7d NPs were evaluated for their enzyme inhibitory effects.

A further data set concerns DNA. Put plainly: DNA intercalation assay (linear DNA formation). To be noted: even at low concentrations; gel. The data set is classed as biochemical. The procedure: The reported procedure by Atwal et al. was our guide to test the DNA intercalating ability of our candidates[56] (Supporting information).
The ability of the designed members to intercalate onto the DNA molecules and increase the levels of Topo I–DNA as well as Topo II-DNA cleavage complexes by stabilising the enzymes–DNA covalent complexes were also assayed. Thus, the amount of linear DNA formed by compounds 5b and 7d, in addition to their nanoforms 5b NPs and 7d NPs, was measured. […] As so, the designed congeners were then considered promising DNA intercalating members (Figure 11).

A further data set concerns Topo II. Put plainly: Topo II inhibitory assay. The data set is classed as biochemical. The procedure:
as §3, §4

The subject of a further data set is Caco-2. Put plainly: MTT cytotoxicity, Caco-2. The data set is classed as cell-based. To be noted: Homo sapiens, mean ± SD. The protocol: as §1, §2
The next data set has as its system HCT-116. Put plainly: MTT cytotoxicity, HCT-116. The data set is classed as cell-based. The following applies: Homo sapiens, mean ± SD. The protocol:
as §1, §2

Data set [1] is described as follows: Cytotoxic effects on normal bone marrow cells. The data set is classed as cell-based, mice. The following applies: mouse, mean ± SD. The protocol: as §1
The dose–response curves for the nanoform on each cell line are shown in the Supporting information, and the respective IC50s are shown in Table 3. The most promising cytotoxic samples were further investigated for their cytotoxic effects on normal mice bone marrow cells. The overall trending results were increasing the proliferation of the bone marrow cells at high concentrations of the samples, especially the 5b NPs nanoform sample, which reached up to 200% compared to the untreated cells. The dose–response curves on the bone marrow cells are represented in the Supporting information.

In general, melting point refers to the temperature of the solid-liquid transition. As usually defined, the IC50 is the concentration that gives 50% inhibition. High values mean lower potency, low ones higher potency. Regarding `CCn1c2c(c(=O)[nH]c1=O)C1(C(=O)Nc3ccc(Cl)cc31)c1c(n(CC)c(=O)[nH]c1=O)N2` [Compound 7b, 5-Chloro-1′,9′-diethyl-1′H-spiro[indoline-3,5′-pyrido[2,3-d:6,5-d′]dipyrimidine]-2,2′,4′, 6′,8′(3′H,7′H,9′H,10′H)-pentaone], the melting point is > 300 °C. Moreover, the IC50 in the data set with MCF7 stood at 171 ± 22.8 µg/mL (≈ 374 µM).

For the compound `O=C1Nc2ccc(Cl)cc2C12c1c(n(Cc3ccccc3)c(=O)[nH]c1=O)Nc1c2c(=O)[nH]c(=O)n1Cc1ccccc1` [Compound 7d, 1′,9′-Dibenzyl-5-chloro-1′H-spiro[indoline-3,5′-pyrido[2,3-d:6,5-d′]dipyrimidine]-2,2′,4′, 6′,8′(3′H,7′H,9′H,10′H)-pentaone], the IC50 in the data set on HepG2 worked out at 91.4 ± 11.3 µg/mL (≈ 157 µM); in the data set on A-549, 329 ± 12.5 µg/mL (≈ 566 µM); against Topo I it was 419 nM; in the data set on Topo II, 2.66 µM. Besides, the “formation of linear DNA” value in the data set on DNA is recorded as “considerable formation of linear DNA”.

Consider `CCn1c2c(c(=O)[nH]c1=O)C1(C(=O)Nc3ccc([N+](=O)[O-])cc31)c1c(n(CC)c(=O)[nH]c1=O)N2` [Compound 5b, 1′,9′-Diethyl-5-nitro-1′H-spiro[indoline-3,5′-pyrido[2,3-d:6,5-d′]dipyrimidine]-2,2′,4′,6′,8′(3′H,7′H,9′H,10′H)-pentaone], for which the IC50 was 114 ± 10.1 µg/mL (≈ 243 µM) in the data set with HepG2, 35.2 ± 4.1 µg/mL (≈ 75.3 µM) with Caco-2, 651 nM against Topo I and 4.47 µM in the data set with Topo II. For the same compound, the “formation of linear DNA” value in the data set with DNA was “considerable formation of linear DNA”.

As to `CCn1c2c(c(=O)[nH]c1=O)C1(C(=O)Nc3ccccc31)c1c(n(CC)c(=O)[nH]c1=O)N2` [Compound 3, 1′,9′-Diethyl-1′H-spiro[indoline-3,5′-pyrido[2,3-d:6,5-d′]dipyrimidine]-2,2′,4′,6′,8′(3′H,7′H,9′H,10′H)-pentaone], the melting point was > 300 °C. In the data set with Caco-2, this compound displayed an IC50 of 259 ± 9.4 µg/mL (≈ 614 µM). Besides, the IC50 with A-549 came to 291 ± 16.4 µg/mL (≈ 689 µM).

With `O=C1Nc2ccc([N+](=O)[O-])cc2C12c1c(n(Cc3ccccc3)c(=O)[nH]c1=O)Nc1c2c(=O)[nH]c(=O)n1Cc1ccccc1` [Compound 5d, 1′,9′-Dibenzyl-5-nitro-1′H-spiro[indoline-3,5′-pyrido[2,3-d:6,5-d′]dipyrimidine]-2,2′,4′,6′,8′(3′H,7′H,9′H,10′H)-pentaone], the melting point was > 300 °C. Besides, the IC50 in the data set with HepG2 is 422 ± 22.8 µg/mL (≈ 713 µM). The IC50 in the data set with Caco-2 was determined as 108 ± 10 µg/mL (≈ 183 µM). Besides, half-maximal inhibition with A-549 (IC50) required 279 ± 18.9 µg/mL (≈ 472 µM).

Turning to `O=C1Nc2ccc([N+](=O)[O-])cc2C12c1c([nH]c(=O)[nH]c1=O)Nc1[nH]c(=O)[nH]c(=O)c12` [Compound 5e, 5-Nitro-1′H-spiro[indoline-3,5′-pyrido[2,3-d:6,5-d′]dipyrimidine]-2,2′,4′,6′,8′(3′H,7′H,9′H,10′H)-pentaone], the melting point is > 300 °C. Further, the IC50 in the data set with HepG2 came to 147 ± 10.5 µg/mL (≈ 357 µM). In the data set on Caco-2, the IC50 is 233 ± 19.2 µg/mL (≈ 566 µM).

As to `O=C1Nc2ccc(Cl)cc2C12c1c([nH]c(=O)[nH]c1=O)Nc1[nH]c(=O)[nH]c(=O)c12` [Compound 7e, 5-Chloro-1′H-spiro[indoline-3,5′-pyrido[2,3-d:6,5-d′]dipyrimidine]-2,2′,4′,6′,8′(3′H,7′H,-9′H,10′H)-pentaone], the IC50 worked out at 89.7 ± 6.5 µg/mL (≈ 224 µM) with HepG2, 472 ± 23.6 µg/mL (≈ 1180 µM) in the data set with Caco-2 and 435 ± 39.5 µg/mL (≈ 1080 µM) in the data set on HCT-116.

Regarding `O=c1[nH]cc(F)c(=O)[nH]1` [Compound 5-FU, 5-fluorouracil, reference compound], the IC50 with MCF7 is 39.3 ± 2.9 µg/mL (≈ 302 µM); with HepG2, 103 ± 9.8 µg/mL (≈ 792 µM); with Caco-2, 4.4 ± 0.3 µg/mL (≈ 33.8 µM); in the data set on HCT-116, 76.3 ± 6.8 µg/mL (≈ 587 µM); in data set [1], 103 ± 9.8 µg/mL (≈ 792 µM); in the data set with A-549, 1.1 ± 0.1 µg/mL (≈ 8.46 µM).

On to `Cn1c2c(c(=O)[nH]c1=S)C1(C(=O)Nc3ccc([N+](=O)[O-])cc31)c1c(n(C)c(=S)[nH]c1=O)N2` [Compound 5c, 1′,9′-Dimethyl-5-nitro-2′,8′-dithioxo-2′,3′,8′,9′-tetrahydro-1′H-spiro[indoline-3,5′-pyrido[2,3-d:6,5-d′]dipyrimidine]-2,4′,6′(7′H,10′H)-trione], for which the melting point was > 300 °C. In the data set on HepG2, this compound yielded an IC50 of 250 ± 19.3 µg/mL (≈ 531 µM). For the same compound, the IC50 with Caco-2 was 247 ± 12.5 µg/mL (≈ 525 µM). In the data set with HCT-116, this compound returned an IC50 of 186 ± 19.4 µg/mL (≈ 394 µM). In the data set with A-549, this compound registered an IC50 of 525 ± 50.6 µg/mL (≈ 1110 µM).

With `Cn1c2c(c(=O)[nH]c1=O)C1(C(=O)Nc3ccc(Cl)cc31)c1c(n(C)c(=O)[nH]c1=O)N2` [Compound 7a, 5-Chloro-1′,9′-dimethyl-1′H-spiro[indoline-3,5′-pyrido[2,3-d:6,5-d′]dipyrimidine]-2,2′,4′, 6′,8′(3′H,7′H,9′H,10′H)-pentaone], the IC50 in the data set on HepG2 is 120 ± 9.2 µg/mL (≈ 281 µM); with Caco-2, 113 ± 10.4 µg/mL (≈ 263 µM); in the data set with A-549, 50.1 ± 5.9 µg/mL (≈ 117 µM).

`Cn1c2c(c(=O)[nH]c1=S)C1(C(=O)Nc3ccc(Cl)cc31)c1c(n(C)c(=S)[nH]c1=O)N2` [Compound 7c, 5-Chloro-1′,9′-dimethyl-2′,8′-dithioxo-2′,3′,8′,9′-tetrahydro-1′H-spiro[indoline-3,5′-pyrido [2,3-d:6,5-d′]dipyrimidine]-2,4′,6′(7′H,10′H)-trione]: the melting point is > 300 °C.

As to `Cn1c2c(c(=O)[nH]c1=O)C1(C(=O)Nc3ccc(F)cc31)c1c(n(C)c(=O)[nH]c1=O)N2` [Compound 9b, 5-Fluoro-1′,9′-dimethyl-1′H-spiro[indoline-3,5′-pyrido[2,3-d:6,5-d′]dipyrimidine]-2,2′,4′,6′,8′(3′H,7′H,9′H,10′H)-pentaone], the melting point is > 300 °C. In addition, 86.4 ± 7.4 µg/mL (≈ 210 µM) corresponded to half-maximal inhibition in the data set with HepG2 (IC50). Moreover, half-maximal inhibition in the data set with Caco-2 (IC50) was put at 492 ± 40.4 µg/mL (≈ 1190 µM). Also, the IC50 in the data set on A-549 amounted to 293 ± 15.4 µg/mL (≈ 710 µM).

Take `COc1cccc2c1C(=O)c1c(O)c3c(c(O)c1C2=O)C[C@@](O)(C(=O)CO)C[C@@H]3O[C@H]1C[C@H](N)[C@H](O)[C@H](C)O1` [Dox, doxorubicin, reference compound]: the IC50 with MCF7 is 5.9 ± 0.5 µg/mL (≈ 10.9 µM); in the data set with HepG2 it was 0.3 ± 0.01 µg/mL (≈ 0.552 µM); in the data set with Caco-2, 3.7 ± 0.2 µg/mL (≈ 6.81 µM); in the data set on HCT-116 it was 1.1 ± 0.1 µg/mL (≈ 2.02 µM); in data set [1], 0.3 ± 0.01 µg/mL (≈ 0.552 µM); in the data set with A-549 it was 0.04 ± 0.003 µg/mL (≈ 0.0736 µM).

On to `Cn1c2c(c(=O)[nH]c1=O)C1(C(=O)Nc3ccc([N+](=O)[O-])cc31)c1c(n(C)c(=O)[nH]c1=O)N2` [Compound 5a, 1′,9′-Dimethyl-5-nitro-1′H-spiro[indoline-3,5′-pyrido[2,3-d:6,5-d′]dipyrimidine]-2,2′,4′,6′,8′(3′H,7′H,9′H,10′H)-pentaone], for which the melting point is > 300 °C. In the data set on HepG2, the IC50 amounted to 563 ± 25.5 µg/mL (≈ 1280 µM). The compound further had an IC50 in the data set with Caco-2 of 207 ± 19.4 µg/mL (≈ 471 µM).
